Test results from ChEMBL document CHEMBL3885861, “Open TG-GATES”.

Species on record: Rattus norvegicus
Assay: Open TG-GATES - Regimen: Single
Assay type: toxicity, organism-based, Sprague-Dawley
Design: regimen Single, gender Male, age 6 weeks
Conditions: in vivo, po, 0 mg/kg, route gavage, dose level Control; for APTT / Bas / Eos / Fbg / Hb / Ht / Lym / MCH / MCHC / MCV / Mono / Neu / PT / Plat / RBC / Ret / WBC: tissue Blood; for KIDNEY_L / KIDNEY_R / KIDNEY_TOTAL: tissue Kidney; for LIVER: tissue Liver; for A/G / ALP / ALT / AST / BUN / CRE / Ca / Cl / DBIL / GLC / IP / K / LDH / Na / PL / RALB / TBIL / TC / TG / TP / gamma-GTP: tissue Plasma

CC(C)(S)[C@@H](N)C(=O)O [PENICILLAMINE]
TERMINAL_BW (3 h): 202 g
APTT (3 h): 15 s
Bas (3 h): 0%
Eos (3 h): 1%
Fbg (3 h): 302 mg/dL
Hb (3 h): 13.8 g/dL
Ht (3 h): 42.5%
Lym (3 h): 79.4%
MCH (3 h): 21.6 pg
MCHC (3 h): 32.5%
MCV (3 h): 66.4 fL
Mono (3 h): 2.8%
Neu (3 h): 15.8%
PT (3 h): 14.4 s
Plat (3 h): 123.9 x10_4/uL
RBC (3 h): 639.6 x10_4/ul
Ret (3 h): 9.1%
WBC (3 h): 90 x10_2/uL
KIDNEY_L (3 h): 0.9 g
KIDNEY_R (3 h): 0.9 g
KIDNEY_TOTAL (3 h): 1.7 g
LIVER (3 h): 9 g
A/G (3 h): 0.9
ALP (3 h): 1505 IU/L
ALT (3 h): 42.2 IU/L
AST (3 h): 75.2 IU/L
BUN (3 h): 10 mg/dL
CRE (3 h): 0.2 mg/dL
Ca (3 h): 11.1 mg/dL
Cl (3 h): 106.2 meq/L
DBIL (3 h): 0.014 mg/dL
GLC (3 h): 178.8 mg/dL
IP (3 h): 8.4 mg/dL
K (3 h): 4.4 meq/L
LDH (3 h): 74.6 IU/L
Na (3 h): 141.8 meq/L
PL (3 h): 137.4 mg/dL
RALB (3 h): 2.6 g/dL
TBIL (3 h): 0.032 mg/dL
TC (3 h): 71.4 mg/dL
TG (3 h): 72.6 mg/dL
TP (3 h): 5.3 g/dL
gamma-GTP (3 h): 1.2 IU/L
TERMINAL_BW (6 h): 201.2 g
APTT (6 h): 16.2 s
Bas (6 h): 0%
Eos (6 h): 1%
Fbg (6 h): 301.2 mg/dL
Hb (6 h): 13.3 g/dL
Ht (6 h): 41.1%
Lym (6 h): 79.2%
MCH (6 h): 20.6 pg
MCHC (6 h): 32.4%
MCV (6 h): 63.7 fL
Mono (6 h): 2.6%
Neu (6 h): 16.2%
PT (6 h): 14.3 s
Plat (6 h): 130.7 x10_4/uL
RBC (6 h): 646.2 x10_4/ul
Ret (6 h): 8.8%
WBC (6 h): 87.2 x10_2/uL
KIDNEY_L (6 h): 0.9 g
KIDNEY_R (6 h): 0.9 g
KIDNEY_TOTAL (6 h): 1.7 g
LIVER (6 h): 8.5 g
A/G (6 h): 0.9
ALP (6 h): 1217 IU/L
ALT (6 h): 34.4 IU/L
AST (6 h): 70.6 IU/L
BUN (6 h): 9.6 mg/dL
CRE (6 h): 0.2 mg/dL
Ca (6 h): 11 mg/dL
Cl (6 h): 106 meq/L
DBIL (6 h): 0.008 mg/dL
GLC (6 h): 175.8 mg/dL
IP (6 h): 8.9 mg/dL
K (6 h): 4.3 meq/L
LDH (6 h): 76 IU/L
Na (6 h): 142.8 meq/L
PL (6 h): 135 mg/dL
RALB (6 h): 2.5 g/dL
TBIL (6 h): 0.038 mg/dL
TC (6 h): 75.8 mg/dL
TG (6 h): 52.4 mg/dL
TP (6 h): 5.3 g/dL
gamma-GTP (6 h): 1 IU/L
TERMINAL_BW (9 h): 199.9 g
APTT (9 h): 16.9 s
Bas (9 h): 0%
Eos (9 h): 0.6%
Fbg (9 h): 300 mg/dL
Hb (9 h): 13.5 g/dL
Ht (9 h): 41.9%
Lym (9 h): 80%
MCH (9 h): 21.1 pg
MCHC (9 h): 32.3%
MCV (9 h): 65.3 fL
Mono (9 h): 2.6%
Neu (9 h): 16.2%
PT (9 h): 14.5 s
Plat (9 h): 126.8 x10_4/uL
RBC (9 h): 641.4 x10_4/ul
Ret (9 h): 9.1%
WBC (9 h): 92.7 x10_2/uL
KIDNEY_L (9 h): 0.9 g
KIDNEY_R (9 h): 0.9 g
KIDNEY_TOTAL (9 h): 1.8 g
LIVER (9 h): 8.1 g
A/G (9 h): 0.9
ALP (9 h): 1372.8 IU/L
ALT (9 h): 40.6 IU/L
AST (9 h): 72 IU/L
BUN (9 h): 8.6 mg/dL
CRE (9 h): 0.1 mg/dL
Ca (9 h): 10.7 mg/dL
Cl (9 h): 106.4 meq/L
DBIL (9 h): 0.006 mg/dL
GLC (9 h): 187.4 mg/dL
IP (9 h): 9.8 mg/dL
K (9 h): 4.2 meq/L
LDH (9 h): 68.4 IU/L
Na (9 h): 143.6 meq/L
PL (9 h): 144 mg/dL
RALB (9 h): 2.6 g/dL
TBIL (9 h): 0.034 mg/dL
TC (9 h): 82 mg/dL
TG (9 h): 55 mg/dL
TP (9 h): 5.4 g/dL
gamma-GTP (9 h): 1.2 IU/L
TERMINAL_BW (24 h): 214.6 g
APTT (24 h): 16.2 s
Bas (24 h): 0%
Eos (24 h): 1%
Fbg (24 h): 317.2 mg/dL
Hb (24 h): 13.3 g/dL
Ht (24 h): 40.9%
Lym (24 h): 76.8%
MCH (24 h): 21.3 pg
MCHC (24 h): 32.6%
MCV (24 h): 65.2 fL
Mono (24 h): 3.6%
Neu (24 h): 17.6%
PT (24 h): 13.9 s
Plat (24 h): 125.8 x10_4/uL
RBC (24 h): 626.4 x10_4/ul
Ret (24 h): 8.2%
WBC (24 h): 92.6 x10_2/uL
KIDNEY_L (24 h): 0.9 g
KIDNEY_R (24 h): 0.9 g
KIDNEY_TOTAL (24 h): 1.8 g
LIVER (24 h): 9.5 g
A/G (24 h): 0.9
ALP (24 h): 1418.8 IU/L
ALT (24 h): 43 IU/L
AST (24 h): 74.6 IU/L
BUN (24 h): 13.2 mg/dL
CRE (24 h): 0.2 mg/dL
Ca (24 h): 11.1 mg/dL
Cl (24 h): 105.8 meq/L
DBIL (24 h): 0.01 mg/dL
GLC (24 h): 174.8 mg/dL
IP (24 h): 7.2 mg/dL
K (24 h): 4 meq/L
LDH (24 h): 80 IU/L
Na (24 h): 143.4 meq/L
PL (24 h): 160.4 mg/dL
RALB (24 h): 2.6 g/dL
TBIL (24 h): 0.026 mg/dL
TC (24 h): 83 mg/dL
TG (24 h): 115.6 mg/dL
TP (24 h): 5.5 g/dL
gamma-GTP (24 h): 1 IU/L
